The record followed here is patent US12304894B2, “Derivatives of adamantyl oxadiazoles and pharmaceutically acceptable solvates, hydrates and salts thereof, pharmaceutical composition comprising same, synthesis method, suitable for use as effective and selective inhibitors of the reductase activity of the enzyme 11-beta dehydrogenase type 1 …” (PONTIFICIA UNIVERSIDAD CATOLICA DE CHILE, priority 2019, dated 2025).

Converted amounts (≈) assume the structure as drawn.

One data set relates to 11β-HSD2. Put plainly: 11β-HSD2 oxidase activity in human hepatic microsomes (HTRF Cortisol Kit). In kind it is biochemical. The note with it: remaining activity at 100 nM compound. On the procedure: Determination of 11β-HSD2 Oxidase Activity
The concentration of cortisone produced in the reaction, with and without the compounds, was determined using the Cortisol Kit (Cisbio) product in order to evaluate the 11β-HSD2 oxidase activity.
As in the previous assays, the compounds are reconstituted in DMSO to 10 mM stock, in order to subsequently make serial dilutions to determine the efficacy curve.
To perform the assay, the HTRF plate was prepared containing Tris buffer, 100 nM cortisol and 200 μM NAD^+. Enzyme is added to the corresponding wells in a 4:1 ratio, respectively, and incubated for 2 hours at 37° C. For the kit control, two wells are added only with Tris buffer.
After the incubation time, the reagents of the Cortisol kit, Cortisol d2 and Cortisol cryptate, in a sample ratio, Cortisol d2 and cortisol cryptate 2:1:1 are added. For the negative control, cortisol d2 was replaced in some wells by the kit's reconstitution buffer. The plate was incubated for 1 hour at room temperature to later read at 665 and 620 nm.
For this purpose, the reaction buffer was prepared and subsequently, in a plate for HTRF, the reaction buffer, the microsomes in a concentration of 5 mg/mL and the compound in a ratio of 3:1:1, respectively, were added to each well. In the case of reaction controls, the reaction buffer without cortisol and without compound is included for the negative control. For the positive control, no compound is added, and for the kit controls, only the reaction buffer is added to the negative and positive control wells.
After incubating the plate for 2 hours, the reagents of the cortisol kit, cortisol d2 and cortisol cryptate, are added to the corresponding wells as indicated above. They are then incubated at room temperature for 1 hour to finally read the 665 and 620 nm fluorescence.

Data set [1] concerns the target T1, recombinant 11β-HSD1 enzyme (Homo sapiens (Human), UniProt P28845). Put plainly: 11β-HSD1 oxidase activity (HTRF Cortisol Kit). The class given is biochemical. On the procedure:
Determination of 11β-HSD1 Oxidase Activity
The Cortisol Kit (Cisbio) product was used for that purpose.
For the analysis, the compounds are reconstituted in DMSO in a stock of 10 mM concentration, from which serial dilutions were prepared for the efficiency curve.
The recombinant 11β-HSD1 enzyme dilutions were prepared in 20 mM Tris Buffer 5 mM EDTA pH 6.0 (Tris buffer).
Initially, the enzyme concentration to be used was determined. For this purpose, a plate for HRTF was prepared with Tris buffer with 100 nM cortisol and 200 μM NADP+, including in the wells of the plate for HTRF together with the enzyme in a 4:1 ratio, respectively, and incubated for 2 hours at 37° C. After this time, the reagents of the Cortisol kit, Cortisol d2 and Cortisol cryptate in sample ratio, Cortisol d2 and cortisol cryptate 2:1:1 were added, incubating this new reaction for 1 hour at room temperature. Subsequently, the fluorescence was determined at 665 and 620 nm.
An HRTF plate was again prepared, where the reaction buffer, the recombinant 11β-HSD1 enzyme and the compound were added in each well in a 3:1:1 ratio, respectively. The plate was incubated at 37° C. for 2 hours. After the incubation time, the reagents of the cortisol kit, cortisol d2 and cortisol cryptate, were added as indicated above. They were then incubated at room temperature for 1 hour to finally read the fluorescence at 665 and 620 nm.

In data set [2] the test system is Madin-Darby Canine Kidney (MDCK) cells transfected with human P-glycoprotein (hMDR1). The note with it: MDCK-MDR1.
Method: Madin-Darby Canine Kidney (MDCK) cells were used in this assay, which are stably transfected with the gene encoding human P-glycoprotein (hMDR1). These cells were cultured in DMEM medium (Dulbecco's Modified Eagle's Medium) high in glucose and supplemented with 10% fetal bovine serum, 1% 5 mM pyruvate, 1% non-essential amino acids solution X5, 20,000 IU/mL of penicillin G and 20,000 IU/mL of streptomycin, a temperature of 37° C., 90% relative humidity and 5% CO2. These cells were seeded in sterile plates on the fourth day of growth or until reaching 90% confluence.
Ten days before carrying out the transport analysis, cells were seeded in Transwells® inserts (1.12 cm2) at a density of 60,000 cells/cm^2. The monolayers were supplemented every two days with fresh culture medium. […] In parallel, B-A experiments were performed (1.5 mL of donor solution in basolateral compartment and 0.5 mL buffer in apical). The monolayers were incubated while stirring (50 rpm) at a temperature of 37° C. for a period of 2 hours. Additionally, this assay was performed in the presence of the Pgp inhibitor elacridar (5 μM). After the stir time, the inserts were removed, the compartments were sampled and the cells were transferred to HPLC vials by diluting these samples with mobile phase chromatography. These samples were kept at −20° C. until their analysis time. […]
For data set [3], the target named is T1, recombinant 11β-HSD1 enzyme. Put plainly: 11β-HSD1 reductase activity (HTRF Cortisol Kit). The note with it: 266 nM cortisone, 333 μM NADPH, read-out: 11b-HSD1 reductase (HTRF) IC50. The class given is biochemical. On the procedure: Determination of 11β-HSD1 Reductase Activity
First, stock solutions of the compounds were prepared in DMSO at a concentration of […], of which serial dilutions were made in order to determine the efficacy curve.
As for the recombinant 11β-HSD1 enzyme (Cayman Chemical, MI, USA; Item No. 10007815), it was prepared in Tris Buffer 20 mM EDTA 5 mM pH 6.0 (Tris buffer) at different dilutions.
Initially, the enzyme concentration to be used in the assays in order to evaluate the biological activity of the compounds was determined. The Cortisol Kit product (Cisbio, MA, USA; Cat no. 62CRTPEG) was used for that purpose.
The protocol consisted of preparing the reaction buffer, adding 266 nM cortisone and 333 μM NADPH in Tris buffer. Then, this reaction buffer is added to the wells of the HTRF (Homogeneous Time Resolved Fluorescence) reaction plate together with the enzyme in a 4:1 ratio respectively, and incubated for 2 hours at 37° C. In the case of the control wells, two wells with Tris buffer were added, without compounds.
After the incubation time, the reagents of the Cortisol kit were added, Cortisol d2 and Cortisol cryptate in sample ratio, Cortisol d2 and cortisol cryptate 2:1:1, in a quantity according to the size of the well as indicated by the supplier (for the negative control of the kit, the cortisol d2 is replaced by the kit's reconstitution buffer). This reaction is incubated for 1 hour at room temperature in order to later read the fluorescence at 665 and 620 nm.
Once the enzyme concentration to be used has been determined, the cortisol kit protocol is continued to determine the efficacy curve for the compounds. As previously done, a plate for HTRF was prepared adding to each well of the reaction buffer, the recombinant 11β-HSD1 enzyme and the compounds to be assayed in a 3:1:1 ratio, respectively. The plate was subsequently incubated at 37° C. for 2 hours.
After the incubation time, the reagents of the cortisol kit, cortisol d2 and cortisol cryptate, are added, and were incubated again for 1 hour at room temperature. Finally, the fluorescence of each well was determined at 665 and 620 nm.

A further data set relates to plasma proteins. Put plainly: Plasma protein binding (Transil XL PPB Binding Kit). The class given is in vitro ADME. From the text:
To carry out this study, the commercial Transil XL PPB Binding Kit, v2, Sovicell was used, following the manufacturer's recommendations.

The nature of data set [4]: Aqueous solubility in the gastrointestinal pH range. The class given is physicochemical. On the procedure:
A stock solution of 100 mM was prepared in DMSO that was added in volumes established on the buffers until the appearance of turbidity was observed. These solutions were prepared in triplicate in final DMSO concentrations of 0.5 to 5.0% V/V of each buffer, then were incubated at 37° C. with vigorous stirring for 48 hours, then another 48 hours but without stirring. The samples were centrifuged and the supernatant was diluted with mobile phase chromatography to be later analyzed by μHPLC-Ms/Ms. The solubility value at each pH was obtained from the intercept of the straight line solubility versus % DMSO. Table 6 presents the aqueous solubility values of BD-40 in the pH range 1.2-6.8.

T1 sequence (P28845 whole entry): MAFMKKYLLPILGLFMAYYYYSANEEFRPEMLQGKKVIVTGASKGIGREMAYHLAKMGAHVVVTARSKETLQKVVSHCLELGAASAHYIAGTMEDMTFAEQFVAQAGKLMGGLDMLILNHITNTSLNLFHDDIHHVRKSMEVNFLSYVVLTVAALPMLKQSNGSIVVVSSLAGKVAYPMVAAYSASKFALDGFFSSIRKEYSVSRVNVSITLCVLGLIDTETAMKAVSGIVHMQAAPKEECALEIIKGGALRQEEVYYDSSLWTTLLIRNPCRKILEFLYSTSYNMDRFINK

As to `Cc1cccc(CCc2nc(C34CC5CC(CC(C5)C3)C4)no2)c1` [BD-40, 1-(3-methylphenyl)-2-(3-adamantyl-1,2,4-oxadiazol-5-yl)ethane], the “11b-HSD2 oxidase (activ rem %) Microcosms 100 nM” value with 11β-HSD2 amounted to 97.9%. Further, the “11b-HSD1 oxidase (activ rem %) 100 nM” value in data set [1] (remaining activity at 100 nM compound) turned out to be 92.1%. Further, in data set [1] (remaining activity at 100 uM compound), the “11b-HSD1 oxidase (activ rem %) 100 uM” value was 89.9%. Besides, in data set [2], the “Papp compared with high permeability marker minoxidil” value is on record as “higher than those of the high permeability marker minoxidil”. Moreover, the IC50 in data set [3] was found to be 11.8 nM. The plasma protein binding in the data set with plasma proteins is reported as 98.3±1.9%. Moreover, the Solubility in data set [4] (pH 1.7, 37° C.) came to 96.16 µg/mL (≈ 298 µM); in data set [4] (pH 4.5, 37° C.) it was 64.12 µg/mL (≈ 199 µM); in data set [4] (pH 6.8, 37° C.) it was 59.23 µg/mL (≈ 184 µM).
